Values joined by “and” are separate entries in the source; they are usually repeats but may differ in a detail not shown here. Equal entries are not always repeated.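 Test compounds were applied to cells in 96-well plates for 48 hours at 5 doses. GI50 marks 50% less growth.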 Active and inactive are the calls of the source. Cut-off read from the data, not from the text of the source: active = GI50 up to about 1.1 µM and inactive = higher. Non-standard residues stand in square brackets, D forms with d. Residues, ends and D or L forms follow the SMILES beside them. *: point of attachment. X30 = COC1=CC(=O)N(C(=O)[C@@H](O*)C(C)C)[C@H]1Cc1ccccc1; NMeL = CN[C@@H](CC(C)C)C(=O)O; Cbz = O=C(OCc1ccccc1)*
How the values were obtained:
Assay in all cases: DTP human tumour cell line panel, 48 h
786-0 = test system: 786-0
A549 = test system: A549
ACHN = test system: ACHN
BT-549 = test system: BT-549
HOP-62 = test system: HOP-62
LOX IMVI = test system: LOX IMVI
NCI-H226 = test system: NCI-H226
NCI-H23 = test system: NCI-H23
NCI/ADR-RES = test system: NCI/ADR-RES
OVCAR-3 = test system: OVCAR-3
OVCAR-4 = test system: OVCAR-4
OVCAR-5 = test system: OVCAR-5
PC-3 = test system: PC-3
RPMI-8226 = test system: RPMI-8226
SNB-19 = test system: SNB-19
SNB-75 = test system: SNB-75
TK-10 = test system: TK-10
UO-31 = test system: UO-31
SR = test system: SR

| SMILES | GI50 (786-0) | GI50 (A549) | GI50 (ACHN) | GI50 (BT-549) | GI50 (HOP-62) | GI50 (LOX IMVI) | GI50 (NCI-H226) | GI50 (NCI-H23) | GI50 (NCI/ADR-RES) | GI50 (OVCAR-3) | GI50 (OVCAR-4) | GI50 (OVCAR-5) | GI50 (PC-3) | GI50 (RPMI-8226) | GI50 (SNB-19) | GI50 (SNB-75) | GI50 (TK-10) | GI50 (UO-31) | GI50 (SR) |
| --- | --- | --- | --- | --- | --- | --- | --- | --- | --- | --- | --- | --- | --- | --- | --- | --- | --- | --- | --- |
| COC1=CC(=O)N(C(=O)[C@@H](OC(=O)[C@@H]2CCCN2C(=O)[C@@H]2CCCN2C(=O)[C@H](CC(C)C)N(C)C(=O)[C@@H](NC(=O)[C@@H](NC(=O)OCc2ccccc2)C(C)C)C(C)C)C(C)C)[C@H]1Cc1ccccc1 (Cbz-VV[NMeL]PP-X30) | 23.3 µM (inactive) | 76.7 µM (inactive) | > 100 µM (inactive) | 23.1 µM (inactive) | 21.4 µM (inactive) | > 100 µM (inactive) | > 100 µM (inactive) | > 100 µM (inactive) | > 100 µM (inactive) | 47.1 µM (inactive) | > 100 µM (inactive) | > 100 µM (inactive) | 11.2 µM (inactive) | 17.6 µM (inactive) | 28.6 µM (inactive) | 2.37 µM (inactive) | 64.7 µM (inactive) | > 100 µM (inactive) |  |
| O=C(O)CSc1nc2ccccc2[nH]1 | > 100 µM (inactive) | > 100 µM (inactive) | > 100 µM (inactive) | > 100 µM (inactive) | > 100 µM (inactive) | > 100 µM (inactive) |  | > 100 µM (inactive) | > 100 µM (inactive) | > 100 µM (inactive) | > 100 µM (inactive) | > 100 µM (inactive) | > 100 µM (inactive) |  | > 100 µM (inactive) | > 100 µM (inactive) | > 100 µM (inactive) | > 100 µM (inactive) | > 100 µM (inactive) |
| O=C1N(C2CCCCC2)C(=O)N1C1CCCCC1 | 0.362 µM (active) | 0.245 µM (active) | 0.0562 µM (active) | 0.0272 µM (active) | 0.425 µM (active) | 0.209 µM (active) | 0.416 µM (active) | 0.83 µM (active) | 0.133 µM (active) | 1.87 µM (inactive) | 1.68 µM (inactive) | 1.83 µM (inactive) | 0.233 µM (active) |  | 1.46 µM (inactive) | 0.142 µM (active) | 2.34 µM (inactive) | < 0.0105 µM (active) | 0.232 µM (active) |
| C/C(=N\NC(=S)N1CC2CCC(CC2)C1)c1cccc(C)n1 | 1.08 µM (active) | 0.9 µM (active) | 0.59 µM (active) | 1.32 µM (inactive) | 1.06 µM (active) | 0.78 µM (active) | 0.841 µM (active) | 2.49 µM (inactive) | 0.01 µM (active) | 0.01 µM (active) | 0.352 µM (active) | 1.46 µM (inactive) | 0.01 µM (active) | 0.31 µM (active) | 1.75 µM (inactive) | 2.64 µM (inactive) | 2.54 µM (inactive) | 0.505 µM (active) |  |
| CC(=O)OCC1OC(n2c(-c3ccccc3)c(/N=N/c3ccc(C)cc3)c(C)c(C#N)c2=S)C(OC(C)=O)C(OC(C)=O)C1OC(C)=O (stereo unspecified) | 3.55 µM (inactive) | 9.62 µM (inactive) | > 100 µM (inactive) | 6.44 µM (inactive) | 18.7 µM (inactive) | 6 µM (inactive) |  | 13.4 µM (inactive) | 7.35 µM (inactive) | 19.7 µM (inactive) | 5.87 µM (inactive) | 23.7 µM (inactive) | > 10 µM (inactive) | 8 µM (inactive) | 15.3 µM (inactive) |  | 23.6 µM (inactive) | > 10 µM (inactive) | 8.99 µM (inactive) |
| COc1cc(C2c3cc4c(cc3OC(Nc3ccccc3)C2C)OCO4)cc(OC)c1OC (stereo unspecified) | 0.774 µM (active) | 1.11 µM (active) | 1.39 µM (inactive) | 4.36 µM (inactive) | 0.366 µM (active) | 0.593 µM (active) | 1.13 µM (inactive) | 0.991 µM (active) | 0.564 µM (active) | 0.323 µM (active) | 24.7 µM (inactive) |  | 0.468 µM (active) | 0.608 µM (active) | 1.19 µM (inactive) | 3.08 µM (inactive) | 23.6 µM (inactive) | 2.09 µM (inactive) | 0.828 µM (active) |
| Cc1cn([C@H]2[C@@H](CO)C[C@H]2O)c(=O)[nH]c1=O | > 100 µM (inactive) | > 100 µM (inactive) | > 100 µM (inactive) | > 100 µM (inactive) | > 100 µM (inactive) | > 100 µM (inactive) | > 100 µM (inactive) | > 100 µM (inactive) | > 100 µM (inactive) | > 100 µM (inactive) | > 100 µM (inactive) | > 100 µM (inactive) | > 100 µM (inactive) | > 100 µM (inactive) |  | > 100 µM (inactive) | > 100 µM (inactive) | > 100 µM (inactive) | > 100 µM (inactive) |
| COC1=C(OC)C(=O)C(Cc2c(-c3ccccc3)nc3sc(Cl)cn23)=C(C)C1=O | 19.6 µM (inactive) | 21.7 µM (inactive) | 16 µM (inactive) | 15.7 µM (inactive) | 19.5 µM (inactive) | 23.7 µM (inactive) |  | 17.8 µM (inactive) | 17.9 µM (inactive) | 16.3 µM (inactive) | 3.61 µM (inactive) | 28.2 µM (inactive) | 16.6 µM (inactive) | 13.5 µM (inactive) | 18.2 µM (inactive) |  | 20 µM (inactive) | 15.8 µM (inactive) | 22.9 µM (inactive) |
| C=CCOc1ccc(N)c([N+](=O)[O-])c1 | > 100 µM (inactive) | > 100 µM (inactive) | > 100 µM (inactive) | > 100 µM (inactive) | > 100 µM (inactive) | > 100 µM (inactive) | > 100 µM (inactive) | > 100 µM (inactive) | > 100 µM (inactive) |  |  | > 100 µM (inactive) | > 100 µM (inactive) | > 100 µM (inactive) | > 100 µM (inactive) | 89.3 µM (inactive) | > 100 µM (inactive) | 94.4 µM (inactive) | > 100 µM (inactive) |
| COc1ccccc1/N=N/c1c(O)ccc2ccccc12 | 13.8 µM (inactive) and 19.3 µM (inactive) | 32.7 µM (inactive) and 23 µM (inactive) | 13.6 µM (inactive) | 84.3 µM (inactive) | 15.8 µM (inactive) and 14.5 µM (inactive) |  |  | 21.7 µM (inactive) and 31.4 µM (inactive) | 42.1 µM (inactive) and 35 µM (inactive) | 31.4 µM (inactive) and 32.1 µM (inactive) |  | 40.1 µM (inactive) and 38.9 µM (inactive) | 35.6 µM (inactive) and 38.1 µM (inactive) |  | 27.6 µM (inactive) and 26.9 µM (inactive) | 18.7 µM (inactive) and 19.6 µM (inactive) | 14.6 µM (inactive) and 23.4 µM (inactive) | 17.9 µM (inactive) and > 10 µM (inactive) | 24.3 µM (inactive) |
| Nc1ccn(C2CC(O)C(COP(=O)(S)OC3CC(n4ccc(N)nc4=O)OC3CO)O2)c(=O)n1 (stereo unspecified) | > 100 µM (inactive) | > 100 µM (inactive) | > 100 µM (inactive) | > 100 µM (inactive) | > 100 µM (inactive) | > 100 µM (inactive) |  | > 100 µM (inactive) | > 100 µM (inactive) | > 100 µM (inactive) | > 100 µM (inactive) | > 100 µM (inactive) | > 100 µM (inactive) | > 100 µM (inactive) | > 100 µM (inactive) | 36.5 µM (inactive) | > 100 µM (inactive) | > 100 µM (inactive) | > 100 µM (inactive) |
| COc1cc2c(cc1OC)C/C(=N\O)c1cc(OC)c(OC)cc1/C=C\2 | 5.52 µM (inactive) | 8.38 µM (inactive) | 12.9 µM (inactive) | 28.7 µM (inactive) | 2.82 µM (inactive) | 6.4 µM (inactive) | 5.56 µM (inactive) | 14.2 µM (inactive) | 5.55 µM (inactive) | 3.67 µM (inactive) | 55.5 µM (inactive) |  | 10.2 µM (inactive) | 3.82 µM (inactive) | 7.08 µM (inactive) | 5.31 µM (inactive) | 18.8 µM (inactive) | 15.9 µM (inactive) | 1.66 µM (inactive) |
| O=C1c2ccccc2C(=O)c2c1c1cc(O)ccc1n2Cc1ccc(Cl)cc1Cl | 2.75 µM (inactive) | 3.27 µM (inactive) |  | 18.5 µM (inactive) | 2.61 µM (inactive) | 2.9 µM (inactive) | 11.5 µM (inactive) | 7.23 µM (inactive) | 3.08 µM (inactive) |  | 1.9 µM (inactive) | 1.89 µM (inactive) | 1.61 µM (inactive) | 7.18 µM (inactive) | 13.4 µM (inactive) |  | 9.29 µM (inactive) | 19.1 µM (inactive) | 3.61 µM (inactive) |
| CC(C)OP(=O)(OC(C)C)C(C(C)C)N(C)/C(N)=N/C#N (stereo unspecified) | > 10 µM (inactive) | > 100 µM (inactive) | > 100 µM (inactive) | > 100 µM (inactive) | > 100 µM (inactive) | > 100 µM (inactive) | > 100 µM (inactive) | > 100 µM (inactive) | > 100 µM (inactive) | > 100 µM (inactive) | > 100 µM (inactive) |  | > 100 µM (inactive) | > 100 µM (inactive) | > 100 µM (inactive) | > 100 µM (inactive) | > 100 µM (inactive) | > 100 µM (inactive) | > 100 µM (inactive) |
| CC(C)NC(=O)N(Nc1ccccc1)C(C)(C)C | > 100 µM (inactive) | > 100 µM (inactive) | > 100 µM (inactive) | > 100 µM (inactive) | > 100 µM (inactive) | > 100 µM (inactive) | > 100 µM (inactive) | > 100 µM (inactive) | > 100 µM (inactive) | > 100 µM (inactive) | > 100 µM (inactive) | > 100 µM (inactive) | > 100 µM (inactive) |  | > 100 µM (inactive) | 73.8 µM (inactive) | > 100 µM (inactive) | 96.2 µM (inactive) | > 100 µM (inactive) |
